Laboratory results from patent US11059800B2, “Dehydroleucodine derivatives and uses thereof” (Bioventures, LLC, priority 2013, dated 2021).

Columns and labels:
Kasumi-1 = assay: Cytotoxicity, annexin V/7-AAD viability by flow cytometry, Kasumi-1; type: cell-based, human; conditions: Kasumi-1, 48 hours, drug range tested 1.25-160 μM
Experimental: (§1) In order to assess the structure-activity relationship of DHL and its derivatives, DHL and its derivatives were evaluated against eight human leukemia cell lines. Cell lines were cultured in Iscove's Modified Dulbecco's Medium (IMDM) supplemented with 10%˜20% fetal bovine serum (FBS) according to culture conditions indicated by ATCC and 1% penicillin/streptomycin (Pen/Strep) at 37° C. and 5% CO2. The cells were seeded into 96-well plates and kept at a concentration of 0.5 million cells per mL. The samples were treated with DHL, Leucodine, DHL-Morpholine, DHL-Proline, DHL-Piperidine, and PTL at varying concentrations in triplicates. Cell viability was determined after incubating for 48 hours. The cells were stained with annexin V-fluorescein isothiocyanate or phycoeritrine (FITC/PE) and 7-aminoactinomycin (7-AAD) to detect phosphatidylserine exposition and cell permeability, respectively. At least 50,000 events were recorded per condition on either an LSR-II or LSR-Fortessa flow cytometer (BD Biosciences). Data analysis was conducted using FlowJo 9.6 software for Mac OS X (TreeStar). Cells that were negative for annexin V and 7-AAD were scored as viable.

MOLM-13 = assay: Cytotoxicity, annexin V/7-AAD viability by flow cytometry, MOLM-13; type: cell-based, human; conditions: MOLM-13, 48 hours, drug range tested 1.25-160 μM
Experimental: as §1

THP-1 = assay: Cytotoxicity, annexin V/7-AAD viability by flow cytometry, THP-1; type: cell-based, human; conditions: THP-1, 48 hours, drug range tested 1.25-160 μM
Experimental: as §1

HOP-62 = assay: Single dose tumor cell growth inhibition, Non-Small Cell Lung Cancer HOP-62; type: cell-based; conditions: HOP-62, single dose 10 μM
Text: (§2) DHL is cytotoxic to various leukemia, colon cancer, CNS cancer and prostate cancer cell lines.

NCI-H322M = assay: Single dose tumor cell growth inhibition, Non-Small Cell Lung Cancer NCI-H322M; type: cell-based; conditions: single dose 10 μM
Text: as §2

NF-κB = assay: Quantitative PCR of NF-κB transcript in MOLM-13 and MV-411 cells; type: cell-based; conditions: 20 μM, 6 hours
Experimental: (FIG. 8A) Graphical representation of the fold changes of HMOX-1 in MOLM-13 cells. Cells were seeded at 0.5 million cells per milliliter and subject to 20 μM of DHL, leucodine, DHL-proline, DHL-piperidine, DHL-morpholine, or parthenolide for 6 hours. RNA was then extracted and quantitative PCR was performed. Experiments were performed in triplicates. Lines represent mean for each specimen, with error bars representing the SD. Fold change was calculated by the delta-delta Ct method. […] (FIG. 8D) Immunoblot for MOLM-13 cells after 6 hours of treatment with either DHL or PTL with 10 or 20 μM. Blot was probed for phospho-p65 and p65 antibodies. Total p65 is shown as the loading control.
To compare these intracellular effects of DHL and its derivatives, quantitative PCR was performed (FIG. 8 and FIG. 9). MOLM-13 or MV-411 cells were seeded at 0.5 million cells per milliliter. Cells were treated for 6 hours with 20 μM of DHL, Leucodine, DHL-Morpholine, DHL-Proline, DHL-Piperidine or PTL, and then collected. […] Quantitative PCR was performed using probes for HMOX-1 (Hs01110251_m1), HSPA1A (Hs00359163_s1), and NFKB1 (Hs00765730_m1). […] Single-plex real-time PCR was performed in triplicates in a StepOne plus RealTime PCR system and analyzed with the StepOne Software. Fold change was calculated using the 2-DDCT method described by Livak and Schmittgen.

## C=C1C(=O)O[C@@H]2[C@H]3C(C)=CC(=O)C3=C(C)CC[C@@H]12 [DHL, dehydroleucodine]
Kasumi-1
  LD50: 12.92 µM
MOLM-13
  LD50: 12.59 µM
THP-1
  LD50: 16.82 µM
HOP-62
  Percent inhibition: 0.0%
NCI-H322M
  Percent inhibition: 0.0%
NF-κB
  NF-κB transcript levels: slightly downregulated
